Data: patent publication US5391800A, “Method for inhibition of cell motility by sphingosine-1-phosphate, its derivatives and mimetics and method of synthesizing sphingosine-1-phosphate and its derivatives” (The Biomembrane Institute, priority 1993, dated 1995)
“Also recorded” adds a separate entry of the source.

How the values were obtained:
B16/F1 melanoma cells [1] = test: Chemotactic motility of B16/F1 cells through MATRI-GEL-coated transwell filter; format: cell-based, mouse; conditions: for % motility: percent relative to control, n = 3 or 4, concentration not given
Procedure: (§1) The assays for determining chemotactic cell motility and chemoinvasion can be performed using transwell plates with a polycarbonate membrane filter (pore size 8 μm) (Costar Scientific, Cambridge, Mass.). Aliguots, e.g., 50 μl, of an aqueous solution of MATRI-GEL (Collaborative Research, Bedford, Mass.) containing SPN-1-P or other inhibitor (e.g., 20 μg/ml for chemotactic motility assay or 200 μg/ml for chemoinvasion assay), is added to each well and dried overnight. The filter is then fitted onto the lower chamber plate. The lower chamber can contain conditioned medium (CM) (i.e., medium used for splenic stromal cell culture, and containing motility factor secreted by these cells), e.g., 0.6 ml, with or without SPN-1-P or other inhibitor. To the upper chamber is added, e.g., about 100 μl, of cell suspension (5×10^4 cells/ml for invasion assay, 5×10^5 cells/ml for motility assay), which is then incubated in 5% CO2 at 37° C. for 70-72 hours (invasion assay) or 20 hours (motility assay). After incubation, cells remaining in the upper chamber are wiped off with a cotton swab, and cells which had migrated to the lower chamber side of the filter are fixed in methanol for 30 seconds and stained with 0.05% toluidine blue. The filter is removed, the stain is solubilized in 10% acetic acid (e.g., 0.1 ml for invasion assay, 0.5 ml for motility assay), and color intensity (optical density) is quantitated by ELISA reading at 630 nm. Using SPN-1-P, a linear relationship was observed between cell number and toluidine blue optical density (FIG. 7).
(§2) Assays were performed using transwell plates with polycarbonate membrane filters (pore size 8 μm) (Costar Scientific, Cambridge, Mass.). 50 μl aliguots of an aqueous solution of MATRI-GEL (Collaborative Research, Bedford, Mass.) containing 20 μg/ml (for chemotactic motility assay) or 200 μg/ml (for chemoinvasion assay) were added to each well and dried overnight. The filter was fitted onto the lower chamber plate. The lower chamber contained 0.6 ml conditioned medium (CM) (i.e., medium used for splenic stromal cell culture, and containing motility factor secreted by these cells) with or without the suspected inhibitor. To the upper chamber was added 100 μl of cell suspension (5×10^4 cells/ml for invasion assay, 5×10^5 cells/ml for motility assay), which was then incubated in 5% CO2 at 37° C. for 70-72 hours (invasion assay) or 20 hours (motility assay). After incubation, cells remaining in the upper chamber were wiped off with a cotton swab, and cells which had migrated to the lower chamber side of the filter were fixed in methanol for 30 seconds and stained with 0.05% toluidine blue. The filter was removed, the stain was solubilized in 10% acetic acid (0.1 ml for invasion assay, 0.5 ml for motility assay), and color intensity (optical density) was quantitated by ELISA reading at 630 nm. A linear relationship was observed between cell number and toluidine blue optical density (FIG. 7.).
In experiments with different quantities of MATRI-GEL, cell migration through transwell filter was maximal with 1 μg/well was applied, and when CM was used (FIG. 8). Therefore, chemotactic cell motility, as affected by various SPN derivatives, was assayed under these conditions.
*Mean ± S.E. of percent relative to control (n = 4). Actual O.D. value
and 0.147 (HT1080). 6 × 10^4 cells were placed on a transwell
filter coated with 1.0 μg MATRIGEL in the upper chamber, and cultured
for 18 hours in the presence of CM and SPN1-P in the lower chamber.

B16/F1 melanoma cells [2] = test: Chemoinvasion of B16/F1 cells through thick MATRI-GEL layer on transwell filter; format: cell-based, mouse; conditions: for Effect on invasion compared with SPN-1-P: FIG. 10; for % invasion: percent relative to control, mean ± S.E., n = 3 or 4, concentration not given, 4200 min
Procedure: as §1, §2
Chemoinvasion was measured by the ability of tumor cells in CM (as described above) to migrate through a thick layer of MATRI-GEL during a prolonged incubation period (70 hours). This property is distinct from chemotactic cell motility, which involves a much shorter incubation period (20 hours) and a thin layer of MATRI-GEL. For the chemoinvasion assay, 10 μg of MATRI-GEL was applied to a polycarbonate transwell filter and migration was observed following 70 hours incubation (based on results shown in FIG. 8).

human neutrophils = test: Phagokinetic activity of human neutrophils on gold sol-coated plates; format: cell-based; conditions: for Cleared area: 2 hours, mean ± S.D., control 6.3 ± 2.3; for Reduction in phagokinetic activity of human neutrophils: Table VII, in words
Procedure: Phagokinetic activity is measured by the ability of cells to ingest foreign particles while moving. Cell motility can be estimated as the area of a phagokinetic track on gold sol particle-coated plates as previously described {Albrecht-Buehler, Cell, 11:395 (1977)}. A uniform coating of gold particles is prepared on glass coverslips precoated with bovine serum albumin, and coverslips are rinsed repeatedly to remove non-adhering or loosely-adhering gold particles. Freshly-prepared neutrophils or tumor cells detached from culture are placed in a Petri dish containing the gold sol-coated plate, and incubated for about 2 hours (for human neutrophils) or about 18 hours (for tumor cells). The coverslips are fixed for 1 hour in a 4% formaldehyde solution in phosphate-buffered saline (PBS) and mounted on microscope slides. The phagokinetic tracks are observed on a television connected to a light microscope (Nikon, Tokyo, Japan). Tracks on the television are transferred to translucent sheets, which are then photocopied. Phagokinetic activity is quantitated by cutting and weighing the swept area in the copy.
Cell motility was estimated as the area of phagokinetic track on gold sol particle-coated plates as previously described {Albrecht-Buehler, Cell, 11:395 (1977)}. A uniform coating of gold particles was prepared on glass coverslips precoated with bovine serum albumin, and the coverslips were rinsed repeatedly to remove non-adhering or loosely-adhering gold particles. Freshly-prepared neutrophils or tumor cells detached from culture were placed in a Petri dish containing the gold sol-coated plate, and incubated for 2 hours (for human neutrophils) or 18 hours (for tumor cells). The coverslips were fixed for 1 hour in 4% formaldehyde solution in phosphate-buffered saline (PBS) and mounted on microscope slides. The phagokinetic tracks were observed on a television connected to a light microscope (Nikon, Tokyo, Japan). Tracks on the television were transferred to translucent sheets, which were then photocopied. Phagokinetic activity was quantitated by cutting and weighing the swept area in the copy.
**mean ± S.D. Freshlyprepared neutrophils (1 × 10^4
cell/plate) were seeded on a coverslip precoated with gold sol particles
in the presence or absence of test compound. 2 hours later, incubation wa
terminated by adding 200 μl of 10% formaldehyde and the cleared area
was estimated as described in the text.

[3] = comparison with other sphingolipids

Row | SMILES | inhibition at 10 µM (B16/F1 melanoma cells [1]; Mus musculus, B16-F1, 20 h, read-out: Motility blocked) [%] | Effect on invasion compared with SPN-1-P (B16/F1 melanoma cells [2]; 70 hours) | % invasion (B16/F1 melanoma cells [2]) [%] | Cleared area (human neutrophils; 0.45 μM) | Inhibition of B16/F1 motility, comparison (B16/F1 melanoma cells [1]; FIG. 9, 20 hour) | inhibition at 0.1 µM (B16/F1 melanoma cells [1]; Mus musculus, B16-F1, 10^-7 M, 20 hour, CM, lower chamber, read-out: Motility blocked) [%] | inhibition at 0.01 µM (B16/F1 melanoma cells [1]; Mus musculus, B16-F1, 10^-8 M, 20 hour, CM, lower chamber, read-out: Motility blocked) [%] | activity at 0.001 µM (B16/F1 melanoma cells [1]; Mus musculus, B16-F1, F1, 0.001 μM, 18 hours, relative to control, mean ± S.E., n = 4) [%] | activity at 0.01 µM (B16/F1 melanoma cells [1]; Mus musculus, B16-F1, F1, 0.01 μM, 18 hours, relative to control, mean ± S.E., n = 4) [%] | activity at 0.1 µM (B16/F1 melanoma cells [1]; Mus musculus, B16-F1, F1, 0.1 μM, 18 hours, relative to control, mean ± S.E., n = 4) [%] | activity at 1 µM (B16/F1 melanoma cells [1]; Mus musculus, B16-F1, F1, 1.0 μM, 18 hours, relative to control, mean ± S.E., n = 4) [%] | Susceptibility of B16/F1 cells (chemotactic motility) (B16/F1 melanoma cells [1]; Table V, in words) | Inhibition of cell motility compared with other sphingolipids (B16/F1 melanoma cells [1]; [3]) | % motility (B16/F1 melanoma cells [1]; mean ± S.E.) [%] | Inhibition of invasion (B16/F1 melanoma cells [2]; 10^-8 or 10^-7 M, 70 hours) | Inhibition of chemoinvasion compared with other sphingolipids (B16/F1 melanoma cells [2]; [3]) | Cleared area (human neutrophils; 1.0 μM) | Cleared area (human neutrophils; 4.5 μM) | Reduction in phagokinetic activity of human neutrophils (human neutrophils) | Inhibition of motility (B16/F1 melanoma cells [1]; 10^-5 M, 20 hour)
1 | CCCCCCCCCCCCC/C=C/[C@@H](O)[C@@H](N)CO [SPN, sphingosine] | 100 | weaker effect | 16 ± 7 | 5.2 ± 2.0 × 10^3 μm^2 | – | – | – | – | – | – | – | – | – | – | – | – | – | – | – | –
2 | CCCCCCCCCCCCC/C=C/[C@@H](O)[C@@H](N)COP(=O)(O)O [SPN-1-P, sphingosine-1-phosphate] | – | – | – | 5.5 ± 2.7 × 10^3 μm^2 | inhibited most strongly; also recorded: same dose-dependent inhibitory effect on cell motility | 100 | 90 | 82 ± 44 | 12 ± 7 | 6 ± 2 | 8 ± 2 | high | much stronger than that for SPN, N,N-dimethylsphingosine (DMS), or N,N,N-trimethylsphingosine (TMS); also recorded: unexpectedly superior inhibition | 5 ± 1 | strongly inhibited | unexpectedly superior inhibition | 5.4 ± 2.4 × 10^3 μm^2 | 3.5 ± 1.4 × 10^3 μm^2 | most striking | –
3 | CCCCCCCCCCCCC/C=C/[C@@H](O)[C@H](CO)[N+](C)(C)C [TMS, N,N,N-trimethylsphingosine] | – | weaker effect | 75 ± 8 | 5.4 ± 2.7 × 10^3 μm^2 | – | – | – | – | – | – | – | – | – | 100 ± 19 | – | – | 3.6 ± 1.5 × 10^3 μm^2 | – | most striking | only weak inhibition of motility
